# Earlier results in US20100189771A1, “FIXED RATIO DRUG COMBINATION TREATMENTS FOR SOLID TUMORS” (priority 2005, published 2010).
# Like-named read-outs stand apart in the source and are kept apart here.
# Conditions: conventional irinotecan
smiles,measurement,setting,value
"CCc1c2c(nc3ccc(OC(=O)N4CCC(N5CCCCC5)CC4)cc13)-c1cc3c(c(=O)n1C2)COC(=O)[C@]3(O)CC [Irinotecan, irinotecan]",IRINOTECAN AUC,"dose 240 mg/m^2, N=3","18,091 ng-h/ml"
same,IRINOTECAN Cmax,"dose 240 mg/m^2, N=3, patients' plasma","2,810 ng/ml"
same,IRINOTECAN AUC,"dose 340 mg/m^2, N=6","22,998 ng-h/ml"
same,IRINOTECAN Cmax,"dose 340 mg/m^2, N=6","3,392 ng/ml"
